Source: the supplement of paper PMC10307832

Key:
Experiment in all cases: relative viability (nuclei count vs DMSO), 5 days (fraction); higher = more cells survive
A-427 = tested on: A-427
Procedure, shortened: (§1)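 Five library-drug doses in √10 steps were combined with a fixed anchor-drug dose, or a single drug was given alone, by pin tool to lung cancer cell lines in 1536-well plates the day after seeding. Nuclei were stained and counted after 5 days. Relative viability is the nuclei count in treated wells over that in vehicle wells, taken as the median of duplicate plates.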

COR-L 105 = tested on: COR-L 105
Procedure, shortened: as §1

EPLC-272H = tested on: EPLC-272H
Procedure, shortened: as §1

HCC-366 = tested on: HCC-366
Procedure, shortened: as §1

HCC-78 = tested on: HCC-78
Procedure, shortened: as §1

HOP-62 = tested on: HOP-62
Procedure, shortened: as §1

LC-2-ad = tested on: LC-2-ad
Procedure, shortened: as §1

LU99A = tested on: LU99A
Procedure, shortened: as §1

LXF-289 = tested on: LXF-289
Procedure, shortened: as §1

NCI-H1666 = tested on: NCI-H1666
Procedure, shortened: as §1

NCI-H1792 = tested on: NCI-H1792
Procedure, shortened: as §1

NCI-H1793 = tested on: NCI-H1793
Procedure, shortened: as §1

NCI-H1915 = tested on: NCI-H1915
Procedure, shortened: as §1

NCI-H1944 = tested on: NCI-H1944
Procedure, shortened: as §1

NCI-H2009 = tested on: NCI-H2009
Procedure, shortened: as §1

NCI-H2085 = tested on: NCI-H2085
Procedure, shortened: as §1

NCI-H2170 = tested on: NCI-H2170
Procedure, shortened: as §1

NCI-H358 = tested on: NCI-H358
Procedure, shortened: as §1

NCI-H460 = tested on: NCI-H460
Procedure, shortened: as §1

SK-LU-1 = tested on: SK-LU-1
Procedure, shortened: as §1

SW 900 = tested on: SW 900
Procedure, shortened: as §1

UMC-11 = tested on: UMC-11
Procedure, shortened: as §1

In the case of `Cc1sc2c(c1C)C(c1ccc(Cl)cc1)=N[C@@H](CC(=O)OC(C)(C)C)c1nnc(C)n1-2` [JQ1] + O=C(c1cc(Cc2n[nH]c(=O)c3ccccc23)ccc1F)N1CCN(C(=O)C2CC2)CC1 [Olaparib] (partner 8 µM), the relative viability (A-427; first compound 0.04 µM) is reported as 0.693, the relative viability (A-427; first compound 0.1265 µM) is reported as 0.72 and the relative viability (A-427; first compound 0.4 µM) is reported as 0.83. The relative viability (A-427; first compound 1.265 µM) was 0.709, the relative viability (A-427; first compound 4 µM) was 0.418 and the relative viability (COR-L 105; first compound 0.04 µM) was 0.624. The relative viability (COR-L 105; first compound 0.1265 µM) was 0.497, the relative viability (COR-L 105; first compound 0.4 µM) was 0.385 and the relative viability (COR-L 105; first compound 1.265 µM) was 0.329. For the same compound, the relative viability (COR-L 105; first compound 4 µM) was 0.351, the relative viability (EPLC-272H; first compound 0.04 µM) was 0.836 and the relative viability (EPLC-272H; first compound 0.1265 µM) was 0.716. The relative viability (EPLC-272H; first compound 0.4 µM) was 0.53, the relative viability (EPLC-272H; first compound 1.265 µM) was 0.471 and the relative viability (EPLC-272H; first compound 4 µM) was 0.199. For the same compound, the relative viability (HCC-366; first compound 0.04 µM) was 0.349, the relative viability (HCC-366; first compound 0.4 µM) was 0.197 and the relative viability (HCC-366; first compound 1.265 µM) was 0.102. The relative viability (HCC-366; first compound 4 µM) was 0.0747, the relative viability (HCC-78; first compound 0.04 µM) was 0.7 and the relative viability (HCC-78; first compound 0.1265 µM) was 0.693. For the same compound, the relative viability (HCC-78; first compound 0.4 µM) was 0.807, the relative viability (HCC-78; first compound 1.265 µM) was 0.581 and the relative viability (HCC-78; first compound 4 µM) was 0.494. For the same compound, the relative viability (HOP-62; first compound 0.04 µM) was 0.306, the relative viability (HOP-62; first compound 0.1265 µM) was 0.285 and the relative viability (HOP-62; first compound 0.4 µM) was 0.18. It also gave a relative viability (HOP-62; first compound 1.265 µM) of 0.114, a relative viability (HOP-62; first compound 4 µM) of 0.115 and a relative viability (LC-2-ad; first compound 0.04 µM) of 0.701. The relative viability (LC-2-ad; first compound 0.1265 µM) was 0.599, the relative viability (LC-2-ad; first compound 0.4 µM) was 0.332 and the relative viability (LC-2-ad; first compound 1.265 µM) was 0.256. It also gave a relative viability (LC-2-ad; first compound 4 µM) of 0.256, a relative viability (LU99A; first compound 0.04 µM) of 0.264 and a relative viability (LU99A; first compound 0.4 µM) of 0.169. The relative viability (LU99A; first compound 1.265 µM) was 0.114, the relative viability (LU99A; first compound 4 µM) was 0.111 and the relative viability (LXF-289; first compound 0.04 µM) was 0.99. It also gave a relative viability (LXF-289; first compound 0.1265 µM) of 1.06, a relative viability (LXF-289; first compound 0.4 µM) of 0.744 and a relative viability (LXF-289; first compound 1.265 µM) of 0.47. It also gave a relative viability (LXF-289; first compound 4 µM) of 0.258, a relative viability (NCI-H1666; first compound 0.04 µM) of 0.708 and a relative viability (NCI-H1666; first compound 0.1265 µM) of 0.616. For the same compound, the relative viability (NCI-H1666; first compound 0.4 µM) was 0.685, the relative viability (NCI-H1666; first compound 1.265 µM) was 0.662 and the relative viability (NCI-H1666; first compound 4 µM) was 0.577. For the same compound, the relative viability (NCI-H1792; first compound 0.04 µM) was 0.378, the relative viability (NCI-H1792; first compound 0.1265 µM) was 0.266 and the relative viability (NCI-H1792; first compound 0.4 µM) was 0.392. For the same compound, the relative viability (NCI-H1792; first compound 1.265 µM) was 0.139, the relative viability (NCI-H1792; first compound 4 µM) was 0.0406 and the relative viability (NCI-H1793; first compound 0.04 µM) was 0.882. The relative viability (NCI-H1793; first compound 0.1265 µM) was 0.735, the relative viability (NCI-H1793; first compound 0.4 µM) was 0.666 and the relative viability (NCI-H1793; first compound 1.265 µM) was 0.526. For the same compound, the relative viability (NCI-H1793; first compound 4 µM) was 0.52, the relative viability (NCI-H1915; first compound 0.04 µM) was 0.23 and the relative viability (NCI-H1915; first compound 0.4 µM) was 0.184. It also gave a relative viability (NCI-H1915; first compound 1.265 µM) of 0.138, a relative viability (NCI-H1915; first compound 4 µM) of 0.107 and a relative viability (NCI-H1944; first compound 0.04 µM) of 0.405. It also gave a relative viability (NCI-H1944; first compound 0.1265 µM) of 0.391, a relative viability (NCI-H1944; first compound 0.4 µM) of 0.314 and a relative viability (NCI-H1944; first compound 1.265 µM) of 0.232. The relative viability (NCI-H1944; first compound 4 µM) was 0.235, the relative viability (NCI-H2009; first compound 0.04 µM) was 0.689 and the relative viability (NCI-H2009; first compound 0.1265 µM) was 0.548. For the same compound, the relative viability (NCI-H2009; first compound 0.4 µM) was 0.545, the relative viability (NCI-H2009; first compound 1.265 µM) was 0.198 and the relative viability (NCI-H2009; first compound 4 µM) was 0.152. For the same compound, the relative viability (NCI-H2085; first compound 0.04 µM) was 0.781, the relative viability (NCI-H2085; first compound 0.1265 µM) was 0.696 and the relative viability (NCI-H2085; first compound 0.4 µM) was 0.693. It also gave a relative viability (NCI-H2085; first compound 1.265 µM) of 0.601, a relative viability (NCI-H2085; first compound 4 µM) of 0.604 and a relative viability (NCI-H2170; first compound 0.04 µM) of 0.614. The relative viability (NCI-H2170; first compound 0.1265 µM) was 0.532, the relative viability (NCI-H2170; first compound 0.4 µM) was 0.361 and the relative viability (NCI-H2170; first compound 1.265 µM) was 0.226. For the same compound, the relative viability (NCI-H2170; first compound 4 µM) was 0.213, the relative viability (NCI-H358; first compound 0.04 µM) was 0.509 and the relative viability (NCI-H358; first compound 0.1265 µM) was 0.58. For the same compound, the relative viability (NCI-H358; first compound 0.4 µM) was 0.604, the relative viability (NCI-H358; first compound 1.265 µM) was 0.406 and the relative viability (NCI-H358; first compound 4 µM) was 0.37. The relative viability (NCI-H460; first compound 0.04 µM) was 0.43, the relative viability (NCI-H460; first compound 0.1265 µM) was 0.336 and the relative viability (NCI-H460; first compound 0.4 µM) was 0.179. It also gave a relative viability (NCI-H460; first compound 1.265 µM) of 0.124, a relative viability (NCI-H460; first compound 4 µM) of 0.0676 and a relative viability (SK-LU-1; first compound 0.04 µM) of 0.452. The relative viability (SK-LU-1; first compound 0.1265 µM) was 0.358, the relative viability (SK-LU-1; first compound 0.4 µM) was 0.374 and the relative viability (SK-LU-1; first compound 1.265 µM) was 0.153. For the same compound, the relative viability (SK-LU-1; first compound 4 µM) was 0.124, the relative viability (SW 900; first compound 0.04 µM) was 0.862 and the relative viability (SW 900; first compound 0.1265 µM) was 0.739. It also gave a relative viability (SW 900; first compound 0.4 µM) of 0.479, a relative viability (SW 900; first compound 1.265 µM) of 0.303 and a relative viability (SW 900; first compound 4 µM) of 0.22. The relative viability (UMC-11; first compound 0.04 µM) was 0.359, the relative viability (UMC-11; first compound 0.1265 µM) was 0.282 and the relative viability (UMC-11; first compound 0.4 µM) was 0.268. The relative viability (UMC-11; first compound 1.265 µM) was 0.142 and the relative viability (UMC-11; first compound 4 µM) was 0.0941.
